Experimental data published in patent US7795220B2, “Conformationally constrained parathyroid hormones with alpha-helix stabilizers” (The General Hospital Corporation, priority 2003, dated 2010).
“And” between values parts separate entries of the source, which are not always exact repeats. Equal values may be shown once. Read-outs that look alike come from different tables or passages of the source. Non-standard residues stand in square brackets, D forms with d. Residues, ends and D or L forms follow the SMILES beside them. No end group written: not given here. hArg = N=C(N)NCCCC[C@H](N)C(=O)O; Ac5c = NC1(C(=O)O)CCCC1; Deg = CCC(N)(CC)C(=O)O; Ac3c = NC1(C(=O)O)CC1; Aib = CC(C)(N)C(=O)O

How the values were obtained:
[1] = molecular target: T1, P1R (recombinant P1R chimera) in HKRK-B28 cells (UniProt P25107+P25961, A364S/A509S/A517P/A524T/DEL519-521/E344G/G506A/H528S/I365V/I416T/I429T/K402R/K465R/L320I/M408V/N352H/S511P/S523T/T335G/T421L/T487S/V367L/V433I); assay: biochemical; type: binding, opposum/rat chimera; details: for IC50: apparent binding affinity (IC50), inhibition of 125I-rPTH(1-21) analog tracer binding, B28 cells
T1 construct: the opposum P1R from the N-terminus to the mid region of TM3; the rat P1R from the mid region of TM3 to the C-terminus; expressed in transfected cells
Excerpt: (§1) Cell Culture. The cell line HKRK-B28 (Takasu, H., et al., J. Bone Miner. Res. 14:11-20 (1999)) was derived from the porcine kidney cell line, LLC-PK1 by stable transfection with plasmid DNA encoding a recombinant P1R chimera comprised of the opposum P1R from the N-terminus to the mid region of TM3 and the rat P1R from the mid region of TM3 to the C-terminus. The surface density of the P1R in these cells is ˜280,000 receptors per cell. The clonal cell line LdelNt-2 was derived from LLC-PK, cells via stable transfection with a plasmid encoding P1R-delNt, a recombinant human PTH-1 receptor construct in which most of the amino-terminal extracellular domain is deleted. These cells, as well as COS-7 cells and SaOS-2-B10 cells, were cultured at […] in T-75 flasks ([…]) in Dulbecco's modified Eagle's medium (DMEM) supplemented with fetal bovine serum (10%), penicillin G (20 units/ml), streptomycin sulfate (20 μg/ml) and amphotericin B (0.05 μg/ml) in a humidified atmosphere containing 5% CO2. Stock solutions of EGTA/trypsin and antibiotics were from GLBCO; fetal bovine serum was from Hyclone Laboratories (Logan, Utah). COS-7 cells sub-cultured in 24-well plates were transfected with plasmid DNA (200 ng per well) encoding the wild-type human P1R or truncated human P1R deleted for residues (24-181) (Shimizu, M., et al., J. Biol. Chem. 275:21836-21843 (2000)) that was purified by cesium chloride/ethidium bromide density gradient centrifugation, and FuGENE 6 transfection reagent (Roche Indianapolis Ind.) according to the manufacturer's recommended procedure. All cells, in 24-well plates, were treated with fresh media and shifted to 33° C. for 12 to 24 h prior to assay.
Competition Binding. Binding reactions were performed with HKRK-B28 cells or in COS-7 cells in 24-well plates. The cells were rinsed with 0.5 mL of binding buffer, and then treated successively with 100 μL binding buffer, 100 μL of binding buffer containing various amounts of unlabeled competitor ligand, and 100 μL of binding buffer containing ca. 100,000 cpm of ^125I-[Aib^1,3,Nle^8,Gln^10,Har^11,Ala^12,Trp^14,Arg^19,Tyr^21]rPTH(1-21) (SEQ. ID. NO. 36) (ca. 26 fmol; final volume=300 μL). Incubations were 4 to 6 h at 4° C., at which time near equilibrium conditions were attained. Cells were then placed on ice, the binding medium was removed, and the monolayer was rinsed three times with 0.5 mL of cold binding buffer. The cells were subsequently lysed with 0.5 mL 5N NaOH and counted for radioactivity. For each tracer and in each experiment, the non-specific binding was determined as the radioactivity that bound in the presence of the same unlabeled peptide at a concentration of 1 μM, and was ˜1% of total radioactivity added for each tracer. The maximum specific binding (B0) was the total radioactivity bound in the absence of competing ligand, corrected for nonspecific binding, and for each tracer, ranged from 8% to 20% of the total radioactivity added. Nonlinear regression was used to calculate binding IC50 values (see below). Scatchard transformations of homologous competition binding data derived from studies with 26 fmol of ^125I-[Aib^1,3,Nle^8,Gln^10,Har^11,Ala^12,Trp^14, Arg^19,Tyr^21]rPTH(1-21) (SEQ. ID. NO. 36) were employed for estimations of apparent equilibrium dissociation constant (kDapps) and total number of ligand binding sites (Bmax), assuming a single class of binding sites and equal affinities of the iodinated and non iodinated ligand.
Data Calculation. Calculations were performed using Microsoft® Excel. Nonlinear regression analyses of binding and cAMP dose-response data were performed using the four-parameter equation: yp=Min+[(Max−Min)/(1+(IC50/x)^slope)]. The Excel Solver function was utilized for parameter optimization, as described previously (Carter, P. H., et al., Endocrinology 140: 4972-4981 (1999); Bowen, W. P., and Jerman, J. C., Trends in Pharmacol. Sci. 16: 413-417 (1995)). […]

[2] = system: P1R (recombinant P1R chimera) in HKRK-B28 cells; assay: cAMP stimulation in HKRK-B28 cells; type: cell-based, opposum/rat chimera; details: for cAMP signaling potency diminished relative to parent [M]PTH(1-14) / cAMP-stimulating potency higher than that of parent [M]PTH(1-14): relative to parent [M]PTH(1-14)
Excerpt: as §1
cAMP Stimulation. Stimulation of cells with peptide analogs was performed in 24-well plates. Cells were rinsed with 0.5 mL of binding buffer (50 mM Tris-HCl, 100 mM NaCl, 5 mM KCl, 2 mM CaCl2, 5% heat-inactivated horse serum, 0.5% fetal bovine serum, adjusted to pH 7.5 with HCl) and treated with 200 μL of cAMP assay buffer (Delbecco's modified Eagle's medium containing 2 mM 3-isobutyl-1-methylxanthine, 1 mg/mL bovine serum albumin, 35 mM Hepes-NaOH, pH 7.4) and 100 μL of binding buffer containing varying amounts of peptide analog (final volume=300 μL). The medium was removed after incubation for 30 to 60 minutes at room temperature, and the cells were frozen on dry ice, lysed with 0.5 mL 50 mM HCl, and refrozen ([…]). The cAMP content of the diluted lysate was determined by radioimmunoassay. The EC50 response values were calculated using nonlinear regression (see below).
Data Calculation. Calculations were performed using Microsoft® Excel. Nonlinear regression analyses of binding and cAMP dose-response data were performed using the four-parameter equation: yp=Min+[(Max−Min)/(1+(IC50/x)^slope)]. The Excel Solver function was utilized for parameter optimization, as described previously (Carter, P. H., et al., Endocrinology 140: 4972-4981 (1999); Bowen, W. P., and Jerman, J. C., Trends in Pharmacol. Sci. 16: 413-417 (1995)). Differences between paired data sets were statistically evaluated using a one-tailed Student's t-test, assuming unequal variances for the two sets.

[3] = relative to parent [M]PTH(1-14)

T1 sequence (P25107+P25961 fused with the stated changes): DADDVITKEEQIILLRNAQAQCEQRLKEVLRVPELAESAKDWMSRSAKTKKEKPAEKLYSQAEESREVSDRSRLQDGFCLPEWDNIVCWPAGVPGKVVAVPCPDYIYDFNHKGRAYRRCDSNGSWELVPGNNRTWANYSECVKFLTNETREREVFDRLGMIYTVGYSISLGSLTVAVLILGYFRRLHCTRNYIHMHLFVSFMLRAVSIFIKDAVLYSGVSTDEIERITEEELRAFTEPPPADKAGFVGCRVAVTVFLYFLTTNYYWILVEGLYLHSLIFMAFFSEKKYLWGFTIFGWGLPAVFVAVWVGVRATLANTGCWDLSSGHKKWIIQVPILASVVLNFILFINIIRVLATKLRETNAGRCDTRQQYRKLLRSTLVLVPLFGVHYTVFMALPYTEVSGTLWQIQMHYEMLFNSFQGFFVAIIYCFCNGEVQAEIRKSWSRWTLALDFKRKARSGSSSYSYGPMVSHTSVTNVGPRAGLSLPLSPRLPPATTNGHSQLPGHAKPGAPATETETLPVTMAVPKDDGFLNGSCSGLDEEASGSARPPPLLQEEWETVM

## CC[C@H](C)[C@H](NC(=O)[C@H](CCC(=O)O)NC(=O)C1(NC(=O)[C@@H](NC(=O)[C@H](C)N)C(C)C)CCCC1)C(=O)N[C@@H](CCC(N)=O)C(=O)N[C@@H](CC(C)C)C(=O)N[C@@H](CCSC)C(=O)N[C@@H](Cc1c[nH]cn1)C(=O)N[C@@H](CCC(N)=O)C(=O)N[C@@H](CCCCNC(=N)N)C(=O)N[C@@H](C)C(=O)N[C@@H](CCCCN)C(=O)N[C@@H](Cc1c[nH]c2ccccc12)C(N)=O [Ac5c^3] (H-AV[Ac5c]EIQLMHQ[hArg]AKW-NH2)
[1]
  IC50: ~3000 nM

## CC[C@H](C)[C@H](NC(=O)[C@H](CCC(=O)O)NC(=O)C(CC)(CC)NC(=O)[C@@H](NC(=O)[C@H](C)N)C(C)C)C(=O)N[C@@H](CCC(N)=O)C(=O)N[C@@H](CC(C)C)C(=O)N[C@@H](CCSC)C(=O)N[C@@H](Cc1c[nH]cn1)C(=O)N[C@@H](CCC(N)=O)C(=O)N[C@@H](CCCCNC(=N)N)C(=O)N[C@@H](C)C(=O)N[C@@H](CCCCN)C(=O)N[C@@H](Cc1c[nH]c2ccccc12)C(N)=O [Deg-3] (H-AV[Deg]EIQLMHQ[hArg]AKW-NH2)
[2]
  cAMP signaling potency diminished relative to parent [M]PTH(1-14): approximately 10 fold
[2]; listed as Deg^3
  cAMP signaling potency diminished relative to parent [M]PTH(1-14): ~40 fold
[1]
  IC50: ~3000 nM
  P1R binding affinity (in words): little or no effect on binding affinity
[1]; [3]
  binding affinity higher than that of parent [M]PTH(1-14): around 1.5 fold

## CC[C@H](C)[C@H](NC(=O)[C@H](CCC(=O)O)NC(=O)C(C)(C)NC(=O)[C@@H](NC(=O)C1(N)CCCC1)C(C)C)C(=O)N[C@@H](CCC(N)=O)C(=O)N[C@@H](CC(C)C)C(=O)N[C@@H](CCSC)C(=O)N[C@@H](Cc1c[nH]cn1)C(=O)N[C@@H](CCC(N)=O)C(N)=O [[Ac5c^1,Aib^3,M]PTH(1-10), [Ac5c^1,Aib^3,Gln^10]PTH(1-10)NH2] (H-[Ac5c]V[Aib]EIQLMHQ-NH2)
[2]; HKRK-B28 cells, peptide at 10 μM
  increase in cAMP levels relative to basal: 33 fold
[2]; HKRK-B28 cells, read-out: cAMP EC50 estimated from dose-response analysis
  EC50: ~3000 nM
[2]
  cAMP agonist activity / signaling potency (in words): clear cAMP response
[2]; Aib^3, Gln^10]PTH(1-10)
  cAMP agonist activity / signaling potency (in words): fall cAMP agonist, albeit with micromolar potency
[1]; concentrations as high as 1×10^−4M, HKRK-B28 cells
  inhibition of tracer radioligand binding: neither peptide inhibited the binding

## CC[C@H](C)[C@H](NC(=O)[C@H](CCC(=O)O)NC(=O)[C@H](C)NC(=O)[C@@H](NC(=O)[C@H](C)N)C(C)C)C(=O)N[C@@H](CCC(N)=O)C(=O)N[C@@H](CC(C)C)C(=O)N[C@@H](CCSC)C(=O)N[C@@H](Cc1c[nH]cn1)C(=O)N[C@@H](CCC(N)=O)C(=O)N[C@@H](CCCCNC(=N)N)C(=O)N[C@@H](C)C(=O)N[C@@H](CCCCN)C(=O)N[C@@H](Cc1c[nH]c2ccccc12)C(N)=O [[M]PTH(1-14), [Ala^1,3,12,Gln^10,Har^11,Trp^14]PTH(1-14)NH2, reference compound] (H-AVAEIQLMHQ[hArg]AKW-NH2)
[2]; HKRK-B28 cells, intracellular cAMP accumulation, listed as [Ala^1,3,12,Gln^10,Har^11,Trp^14]PTH(1-14)NH2, read-out: cAMP-stimulating potency (EC50)
  EC50: 220 ± 80 nM
[2]; HKRK-B28 cells, intracellular cAMP accumulation, read-out: cAMP-stimulating potency (EC50)
  EC50: 200 nM
[2]; HKRK-B28 cells, n=7
  maximum cAMP response: 225±21 picomoles of cAMP per well

## CC[C@H](C)[C@H](NC(=O)[C@H](CCC(=O)O)NC(=O)[C@H](C)NC(=O)[C@@H](NC(=O)[C@H](C)N)C(C)C)C(=O)N[C@@H](CCC(N)=O)C(=O)N[C@@H](CC(C)C)C(=O)N[C@@H](CCSC)C(=O)N[C@@H](Cc1cnc[nH]1)C(=O)N[C@@H](CCC(N)=O)C(=O)N[C@@H](CCCCN=C(N)N)C(=O)N[C@@H](C)C(=O)N[C@@H](CCCCN)C(=O)N[C@@H](Cc1c[nH]c2ccccc12)C(N)=O [[M]PTH(1-14), [Ala^1,3,12,Gln^10,Har^11,Trp^14]PTH(1-14)NH2, reference compound] (H-AVAEIQLMHQ[hArg]AKW-NH2)
[1]
  IC50: ~3000 nM and 600 nM

## Ac3c-3: parent [M]PTH(1-14) analog in which alanine-3 was substituted with 1-aminocyclopropane-1-carboxylic acid (Ac3c)
[2]
  cAMP-stimulating potency higher than that of parent [M]PTH(1-14): < two
[1]; [3]
  binding affinity lower than that of parent [M]PTH(1-14): approximately 10 fold

## Ac5c-3: parent [M]PTH(1-14) analog in which alanine-3 was substituted with 1-aminocyclopentane-1-carboxylic acid (Ac5c)
[2]
  cAMP-stimulating potency higher than that of parent [M]PTH(1-14): < two
[1]
  P1R binding affinity (in words): little or no effect on binding affinity

## [Ac3c^1,3,Gln^10,Har^11,Ala^12,Trp^14]PTH(1-14)NH2 ([Ac3c]V[Ac3c]EIQLMHQ[hArg]AKW-NH2) [[Ac3c^1,3,M]PTH(1-14)]
[2]
  cAMP agonist activity / signaling potency (in words): comparable to the parent peptide
[1]
  P1R binding affinity (in words): comparable to the parent peptide

## [Aib^1,3,Gln^10]PTH(1-10)NH2 ([Aib]V[Aib]EIQLMHQ-NH2; N-terminus assumed; SMILES CC[C@H](C)[C@H](NC(=O)[C@H](CCC(=O)O)NC(=O)C(C)(C)NC(=O)[C@@H](NC(=O)C(C)(C)N)C(C)C)C(=O)N[C@@H](CCC(N)=O)C(=O)N[C@@H](CC(C)C)C(=O)N[C@@H](CCSC)C(=O)N[C@@H](Cc1c[nH]cn1)C(=O)N[C@@H](CCC(N)=O)C(N)=O) [ID; NO; 35]
[2]; HKRK-B28 cells, peptide at 1×10^−4M
  increase in cAMP levels relative to basal: two
[2]; P1R-transfected cells
  activity / cAMP response in cell-based assays (in words): measurable cAMP responses can be detected

## native PTH(1-9): native PTH(1-9) (SEQ. ID. NO. 33) (SVSEIQLMH-NH2) [reference compound]
[2]; peptide at 10^−4M
  cAMP agonist activity at single high concentration (in words): inactive
